Literature values, collected in patent US9308169B2, “Microspheres for active embolization” (Biosphere Medical, Inc., priority 2000, dated 2016).

Conditions: effect of the spacer / dangling cationic head of the transfection agent; general statement, no test described

| SMILES | transfection efficiency |
| --- | --- |
| CCCCCCCC/C=C\CCCCCCCC(=O)OC[C@H](COC(=O)CCC(=O)OCC[N+](C)(C)C)OC(=O)CCCCCCC/C=C\CCCCCCCC [DOSC] | best transfection efficiency |
| CCCCCCCC/C=C\CCCCCCCC(=O)OC[C@H](COC(=O)CCC[N+](C)(C)C)OC(=O)CCCCCCC/C=C\CCCCCCCC [DOTB] | best transfection efficiency |
